Laboratory results published in patent US4874856A, “3-(substituted)propenyl-7-(aminothiazolylacetamido) ceph-3-em-4-carboxylic acids and esters thereof” (Bristol-Myers Company, priority 1987, dated 1989).
In brackets after ≈: the same amount, converted by molar mass. Like-named read-outs stand apart in the source and are kept apart here.

Columns and labels:
Format in all cases: cell-based
[1] = system: Penicillin(PC)sensitive S. aureus; assay: In vitro MIC, two-fold serial agar dilution in Mueller-Hinton agar, Gp-Ia strains; settings: Staphylococcus aureus; GpIa, 5 strains; read-out: Geometric mean of MIC, GpIa
Experimental: (§1) The in vitro antibacterial activity of the parent cephalosporanic acids of Formula I wherein R^4 is hydrogen is shown in Table 1 in terms of geometric mean of the Minimum Inhibitory Concentrations (MIC's) which were determined by the two-fold serial agar dilution method in Mueller-Hinton agar against 25 strains of test organisms in five groups.
Gp-Ia: Penicillin(PC)sensitive S. aureus

[2] = system: Cephalothin(CET)sensitive E. coli (2 strains), K. pneumoniae (1) an P. mirabilis (2); assay: In vitro MIC, two-fold serial agar dilution in Mueller-Hinton agar, GnIa strains; settings: 5 strains, read-out: Geometric mean of MIC, GnIa
Experimental: as §1
GnIa: Cephalothin(CET)sensitive E. coli (2 strains), K. pneumoniae (1) an […]

[3] = system: CETresistant E. coli (3) and K. pneumoniae (2); assay: In vitro MIC, two-fold serial agar dilution in Mueller-Hinton agar, GnIb strains; settings: Escherichia coli, 5 strains, read-out: Geometric mean of MIC, GnIb
Experimental: as §1
GnIb: CETresistant E. coli (3) and K. pneumoniae (2)

[4] = system: M. morcanii (1), E. cloacae (2) and S. marcescens (2); assay: In vitro MIC, two-fold serial agar dilution in Mueller-Hinton agar, GnII strains; settings: Enterobacter cloacae, read-out: Geometric mean of MIC, GnII
Experimental: as §1
GnII: M. morcanii (1), E. cloacae (2) and S. marcescens (2)

[5] = system: Citrobacter freundii; assay: In vitro MIC, Mueller-Hinton agar, inoculum 10^6 cells/ml
Text: (§2) Table 6 is a comparison of the in vitro antibacterial activities of Compound 29 and the vinyl homolog thereof FK-482 against clinically important pathogens. Thirty-seven organisms were more than 4-fold more susceptible to Compound 29 than to FK-482. FK-482 has the following formula and is described by Takaya, et al. in U.S. Pat. No. 4,559,334 patented Dec. 17, 1985 (filed Oct. 20, 1983). [drawing 14]
(§3) *; Geometric mean of MIC (μg/ml)
(§4) Mueller-Hinton agar Inoculum size; 10^6 cells/ml

[6] = system: Enterobacter aerogenes; assay: as above; settings: Klebsiella aerogenes
Text: as §2, §3, §4

[7] = system: Enterobacter cloacae; assay: as above
Text: as §2, §3, §4

[8] = system: Morganella morganii; assay: as above
Text: as §2, §3, §4

[9] = system: Proteus mirabilis; assay: as above
Text: as §2, §3, §4

[10] = system: Proteus vulgaris; assay: as above
Text: as §2, §3, §4

[11] = system: Providencia rettgeri; assay: as above
Text: as §2, §3, §4

[12] = system: Serratia marcescens; assay: as above
Text: as §2, §3, §4

[13] = system: Serratia species; assay: as above
Text: as §2, §3, §4

C/C=C\C1=C(C(=O)O)N2C(=O)[C@@H](NC(=O)/C(=N\O)c3csc(N)n3)[C@H]2SC1 [Compound 29, 7β-[(Z)-2-(2-aminothiazol-4-yl)-2-(hydroxyimino)acetamido]-3-[(Z)-prop-1-en-1-yl]-3-cephem-4-carboxylic acid]
MIC [1]: 0.2 µg/mL (≈ 0.488 µM) | MIC [2]: 0.066 µg/mL (≈ 0.161 µM) | MIC [3]: 0.35 µg/mL (≈ 0.855 µM) | MIC [4]: 6.3 µg/mL (≈ 15.4 µM) | MIC ([5]; (GM) of the Citrobacter freundii strains, read-out: Geometric mean of MIC): 1.7 µg/mL (≈ 4.15 µM) | MIC ([5]; strain A21312, read-out: MIC): > 50 µg/mL | MIC ([5]; strain A22140, read-out: MIC): 1.6 µg/mL (≈ 3.91 µM) | MIC ([5]; strain A22141, read-out: MIC): 1.6 µg/mL (≈ 3.91 µM) | MIC ([5]; strain A22142, read-out: MIC): 0.8 µg/mL (≈ 1.95 µM) | MIC ([5]; strain A22160, read-out: MIC): 0.8 µg/mL (≈ 1.95 µM) | MIC ([5]; strain A22161, read-out: MIC): 0.8 µg/mL (≈ 1.95 µM) | MIC ([5]; strain A22166, read-out: MIC): 0.8 µg/mL (≈ 1.95 µM) | MIC ([5]; strain A22175, read-out: MIC): 0.8 µg/mL (≈ 1.95 µM) | MIC ([5]; strain A22176, read-out: MIC): 0.8 µg/mL (≈ 1.95 µM) | MIC ([5]; strain A22177, read-out: MIC): 3.1 µg/mL (≈ 7.57 µM) | MIC ([6]; (GM) of the Enterobacter aerogenes strains, read-out: Geometric mean of MIC): 4.9 µg/mL (≈ 12 µM) | MIC ([6]; strain A20940, read-out: MIC): > 50 µg/mL | MIC ([6]; strain A20941, read-out: MIC): 1.6 µg/mL (≈ 3.91 µM) | MIC ([6]; strain A20943, read-out: MIC): 0.8 µg/mL (≈ 1.95 µM) | MIC ([6]; strain A20958, read-out: MIC): 6.3 µg/mL (≈ 15.4 µM) | MIC ([6]; strain A20961, read-out: MIC): 3.1 µg/mL (≈ 7.57 µM) | MIC ([6]; strain A20966, read-out: MIC): 6.3 µg/mL (≈ 15.4 µM) | MIC ([6]; strain A20971, read-out: MIC): 1.6 µg/mL (≈ 3.91 µM) | MIC ([6]; strain A20985, read-out: MIC): > 50 µg/mL | MIC ([6]; strain A20994, read-out: MIC): 6.3 µg/mL (≈ 15.4 µM) | MIC ([6]; strain A20996, read-out: MIC): 0.8 µg/mL (≈ 1.95 µM) | MIC ([6]; strain A21013, read-out: MIC): 3.1 µg/mL (≈ 7.57 µM) | MIC ([6]; strain A21036, read-out: MIC): > 50 µg/mL | MIC ([6]; strain A21037, read-out: MIC): 0.4 µg/mL (≈ 0.977 µM) | MIC ([6]; strain A21038, read-out: MIC): 0.8 µg/mL (≈ 1.95 µM) | MIC ([6]; strain A21039, read-out: MIC): 6.3 µg/mL (≈ 15.4 µM) | MIC ([6]; strain A21043, read-out: MIC): 12.5 µg/mL (≈ 30.5 µM) | MIC ([6]; strain A21044, read-out: MIC): 25 µg/mL (≈ 61.1 µM) | MIC ([6]; strain A21118, read-out: MIC): 50 µg/mL (≈ 122 µM) | MIC ([6]; strain A21120, read-out: MIC): 6.3 µg/mL (≈ 15.4 µM) | MIC ([6]; strain A21130-1, read-out: MIC): 6.3 µg/mL (≈ 15.4 µM) | MIC ([6]; strain A21131, read-out: MIC): 0.8 µg/mL (≈ 1.95 µM) | MIC ([6]; strain A21152, read-out: MIC): 0.8 µg/mL (≈ 1.95 µM) | MIC ([6]; strain A21155, read-out: MIC): 3.1 µg/mL (≈ 7.57 µM) | MIC ([6]; strain A21158, read-out: MIC): 6.3 µg/mL (≈ 15.4 µM) | MIC ([6]; strain A21503, read-out: MIC): 3.1 µg/mL (≈ 7.57 µM) | MIC ([7]; (GM) of the Enterobacter cloacae strains, read-out: Geometric mean of MIC): 17 µg/mL (≈ 41.5 µM) | MIC ([7]; strain A 9655, read-out: MIC): 50 µg/mL (≈ 122 µM) | MIC ([7]; strain A 9659, read-out: MIC): > 50 µg/mL | MIC ([7]; strain A20344, read-out: MIC): > 50 µg/mL | MIC ([7]; strain A20364, read-out: MIC): 3.1 µg/mL (≈ 7.57 µM) | MIC ([7]; strain A20464, read-out: MIC): 3.1 µg/mL (≈ 7.57 µM) | MIC ([7]; strain A20650, read-out: MIC): 0.8 µg/mL (≈ 1.95 µM) | MIC ([7]; strain A22551, read-out: MIC): > 50 µg/mL | MIC ([8]; (GM) of the Morganella morganii strains, read-out: Geometric mean of MIC): 6.3 µg/mL (≈ 15.4 µM) | MIC ([8]; IFO3843, strain IFO 3843 MS-1, read-out: MIC): 1.6 µg/mL (≈ 3.91 µM) | MIC ([8]; strain A 9636, read-out: MIC): > 50 µg/mL | MIC ([8]; strain A20455, read-out: MIC): 1.6 µg/mL (≈ 3.91 µM) | MIC ([9]; (GM) of the Proteus mirabilis strains, read-out: Geometric mean of MIC): 0.084 µg/mL (≈ 0.205 µM) | MIC ([9]; IFO3849, strain IFO 3849 MS-1, read-out: MIC): 0.1 µg/mL (≈ 0.244 µM) | MIC ([9]; strain A 9554, read-out: MIC): 0.1 µg/mL (≈ 0.244 µM) | MIC ([9]; strain A 9702, read-out: MIC): 0.05 µg/mL (≈ 0.122 µM) | MIC ([9]; strain A 9716, read-out: MIC): 0.1 µg/mL (≈ 0.244 µM) | MIC ([9]; strain A20119, read-out: MIC): 0.05 µg/mL (≈ 0.122 µM) | MIC ([9]; strain A20342, read-out: MIC): 0.1 µg/mL (≈ 0.244 µM) | MIC ([9]; strain A20454, read-out: MIC): 0.1 µg/mL (≈ 0.244 µM) | MIC ([9]; strain A21222, read-out: MIC): 0.1 µg/mL (≈ 0.244 µM) | MIC ([10]; (GM) of the Proteus vulgaris strains, read-out: Geometric mean of MIC): 1 µg/mL (≈ 2.44 µM) | MIC ([10]; strain A 9436, read-out: MIC): 0.1 µg/mL (≈ 0.244 µM) | MIC ([10]; strain A 9526, read-out: MIC): 3.1 µg/mL (≈ 7.57 µM) | MIC ([10]; strain A 9699, read-out: MIC): 1.6 µg/mL (≈ 3.91 µM) | MIC ([10]; strain AKH-26, read-out: MIC): > 50 µg/mL | MIC ([10]; strain HX-19 MS-1, read-out: MIC): 0.1 µg/mL (≈ 0.244 µM) | MIC ([10]; strain OX-19 MS-1, read-out: MIC): 0.2 µg/mL (≈ 0.488 µM) | MIC ([11]; (GM) of the Providencia rettgeri strains, read-out: Geometric mean of MIC): 0.015 µg/mL (≈ 0.0366 µM) | MIC ([11]; IFO3850, strain IFO 3850 MS-1, read-out: MIC): < 0.0063 µg/mL | MIC ([11]; strain A 9637, read-out: MIC): < 0.0063 µg/mL | MIC ([11]; strain A15167 (first line), read-out: MIC): < 0.0063 µg/mL | MIC ([11]; strain A15167 (second line), read-out: MIC): 0.013 µg/mL (≈ 0.0317 µM) | MIC ([11]; strain A20645, read-out: MIC): 0.4 µg/mL (≈ 0.977 µM) | MIC ([11]; strain A20915, read-out: MIC): 0.8 µg/mL (≈ 1.95 µM) | MIC ([11]; strain A20920, read-out: MIC): < 0.0063 µg/mL | MIC ([11]; strain A20921, read-out: MIC): < 0.0063 µg/mL | MIC ([11]; strain A21205, read-out: MIC): 0.025 µg/mL (≈ 0.0611 µM) | MIC ([11]; strain A21270, read-out: MIC): 0.025 µg/mL (≈ 0.0611 µM) | MIC ([12]; (GM) of the Serratia marcescens strains, read-out: Geometric mean of MIC): 13 µg/mL (≈ 31.7 µM) | MIC ([12]; strain A20019, read-out: MIC): 1.6 µg/mL (≈ 3.91 µM) | MIC ([12]; strain A20222, read-out: MIC): 3.1 µg/mL (≈ 7.57 µM) | MIC ([12]; strain A20333, read-out: MIC): > 50 µg/mL | MIC ([12]; strain A20334, read-out: MIC): > 50 µg/mL | MIC ([12]; strain A20335, read-out: MIC): 1.6 µg/mL (≈ 3.91 µM) | MIC ([12]; strain A20336, read-out: MIC): 3.1 µg/mL (≈ 7.57 µM) | MIC ([12]; strain A20442, read-out: MIC): 3.1 µg/mL (≈ 7.57 µM) | MIC ([12]; strain A20459, read-out: MIC): > 50 µg/mL | MIC ([12]; strain A20460, read-out: MIC): 12.5 µg/mL (≈ 30.5 µM) | MIC ([12]; strain A20461, read-out: MIC): > 50 µg/mL | MIC ([13]; (GM) of the Serratia species strains, read-out: Geometric mean of MIC): 44 µg/mL (≈ 107 µM) | MIC ([13]; strain 6-330, read-out: MIC): 3.1 µg/mL (≈ 7.57 µM) | MIC ([13]; strain 6-427, read-out: MIC): 3.1 µg/mL (≈ 7.57 µM) | MIC ([13]; strain 6-920, read-out: MIC): > 50 µg/mL | MIC ([13]; strain 7-255, read-out: MIC): > 50 µg/mL | MIC ([13]; strain 7-454, read-out: MIC): > 50 µg/mL | MIC ([13]; strain 7-2322, read-out: MIC): > 50 µg/mL | MIC ([13]; strain 8-185, read-out: MIC): > 50 µg/mL | MIC ([13]; strain 8-513, read-out: MIC): 25 µg/mL (≈ 61.1 µM) | MIC ([13]; strain 8-785, read-out: MIC): > 50 µg/mL | MIC ([13]; strain 8-1537, read-out: MIC): 25 µg/mL (≈ 61.1 µM) | MIC ([13]; strain 9-50, read-out: MIC): > 50 µg/mL | MIC ([13]; strain 9-690, read-out: MIC): > 50 µg/mL
